Source: US7718406B2, “Substrates for TAFI (A)” (DSM IP Assets B.V., priority 2002, dated 2010)

What was measured:
[1] = target: T1, TAFIa (Homo sapiens, UniProt Q96IY4); test: Splitting of thiaarginine and thialysine substrates by TAFIa (Ellman's reagent, absorption at 405-412 nm); assay type: biochemical; conditions: substrate final concentration 174 μM; TAFIa final concentration 17 μg/ml; RT, 10 min; pH 7.4
T1 construct: purchased Enzyme Research Laboratory
T1 sequence (Q96IY4 115-423): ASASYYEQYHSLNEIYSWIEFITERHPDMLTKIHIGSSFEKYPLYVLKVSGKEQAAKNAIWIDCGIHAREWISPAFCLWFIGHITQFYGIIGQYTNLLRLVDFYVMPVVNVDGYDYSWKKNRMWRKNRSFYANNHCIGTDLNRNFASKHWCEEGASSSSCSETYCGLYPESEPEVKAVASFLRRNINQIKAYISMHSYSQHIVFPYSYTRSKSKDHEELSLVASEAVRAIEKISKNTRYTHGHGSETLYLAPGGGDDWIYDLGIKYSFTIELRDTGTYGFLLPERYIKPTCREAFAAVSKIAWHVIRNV
Experimental: Principle: TAFIa is determined as shown in Scheme 1. In a first step, the substrate is hydrolyzed by TAFIa in such a way that a thioamino acid (thiaarginine or thialysine) is released. These instable intermediates are rapidly decomposed into 2-mercaptoethylguanidine or 3-mercaptopropylamine, respectively. These mercapto compounds react with Ellman's reagent (5,5′-dithio-bis-(2-nitrobenzoic acid)), thereby releasing the strongly yellow 3-carboxy-4-nitrothiophenol that can be measured using a spectrophotometer at 405-412 nm. The free thiol content measured is directly proportional to the quantity of substrate hydrolyzed by TAFIa and thereby allows a quantitative analysis of the enzyme activity.
Enzyme assay: The enzyme activity is measured at room temperature by using a 10 mM substrate stock solution in DMSO. TAFI of human origin can be obtained in a stock solution of 360 μg/ml from Enzyme Research Laboratory or over blood plasma. Activation of TAFI to TAFIa occurred with thrombin (2.7 U/ml), the activation of which was produced with 30 μg of thrombomodulin. Excessive thrombin activity was eliminated by adding the synthetic inhibitor NAPAP. The measurement was performed on microtiter plates.
The absorption increase at 405-412 nm was recorded for 10 minutes.
in buffer (20 mM HEPES, 5 mM CaCl2, 0.01% Tween 80; pH 7.4) • incubate for 5 min at 25° C. Measurement:
(§1) • measure for 10 min at RT Results: • Splitting of thiaarginine and thialysine substrates (final concentration 174 μM) by TAFIa (final concentration 17 μg/ml) • in brackets the value for carboxypeptidase B • Substances of comparison A and B from Bull. Korean. Chem. Soc. 1998, 19(2), 189-193 • ΔE=Extinction variation at 405 nm

[2] = target: T2, carboxypeptidase B (Homo sapiens, UniProt P15086); test: Splitting of thiaarginine and thialysine substrates by carboxypeptidase B; assay type: biochemical; conditions: substrate final concentration 174 μM
T2 sequence (P15086 111-417): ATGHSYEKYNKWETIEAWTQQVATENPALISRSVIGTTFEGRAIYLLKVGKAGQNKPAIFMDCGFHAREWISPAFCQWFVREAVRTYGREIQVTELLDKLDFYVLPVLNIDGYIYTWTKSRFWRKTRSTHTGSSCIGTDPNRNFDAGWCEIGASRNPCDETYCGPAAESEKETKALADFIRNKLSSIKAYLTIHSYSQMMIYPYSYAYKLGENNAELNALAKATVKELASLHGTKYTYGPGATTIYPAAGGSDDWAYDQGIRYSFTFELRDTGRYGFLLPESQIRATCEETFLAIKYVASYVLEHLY
Experimental: [drawing 2] have been described as substrates for carboxypeptidase B (Bull. Korean. Chem. Soc. 1998, 19(2), 189-193). […] Detection of CPB by means of compound A is carried out according to the following Scheme 1.
as §1

Compound	ΔE/min (extinction variation at 405 nm), splitting by TAFIa [1]	ΔE/min (extinction variation at 405 nm), value in brackets for carboxypeptidase B [2]
Boc-K(Z)-G(GUS)-OH × TFA [No. 4275]	0.041 ΔE/min	(0.028) ΔE/min
Cl.N=C(N)NCCSC(NC(=O)[C@H](CCCCNC(=O)OCc1ccccc1)NC(=O)c1ccccc1)C(=O)O (stereo partly drawn) [No. 4269, benzoyl-(L)-lysyl-(ε-benzyloxycarbonyl)-α-(D,L)-(2-guanidinoethylthio)-glycine hydrochloride salt]	0.108 ΔE/min	(0.018) ΔE/min
NCCCSC(NC(=O)[C@H](CCCCNC(=O)OCc1ccccc1)NC(=O)c1ccccc1)C(=O)O.O=C(O)C(F)(F)F (stereo partly drawn) [No. 4339, benzoyl-(L)-lysyl-(ε-benzyloxycarbonyl)-α-(D,L)-(3-aminopropylthio)-glycine trifluoracetic acid salt]	0.055 ΔE/min	–
Boc-K(Z)-G(α-SPrA)-OH × TFA [No. 4341]	0.054 ΔE/min	–
Bz-V-G(α-SPrA)-OH × TFA [No. 4336]	0.053 ΔE/min	–

Next, values leading:

ΔE/min (extinction variation at 405 nm), splitting by TAFIa [1]	ΔE/min (extinction variation at 405 nm), value in brackets for carboxypeptidase B [2]	Compound
0.034 ΔE/min	–	Bz-V-G(GUS)-OH × TFA [No. 4334]
0.014 ΔE/min	(0.048) ΔE/min	Boc-K(Tos)-G(GUS)-OH × HCl [No. 4273]
0.043 ΔE/min	(0.034) ΔE/min	Boc-F-K(Boc)-G(GUS)-OH × HCl [No. 4298]
0.042 ΔE/min	(0.059) ΔE/min	Z-A-K(Boc)-G(GUS)-OH × HCl [No. 4302]
0.012 ΔE/min	(0.072) ΔE/min	Bz-P-K(Boc)-G(GUS)-OH × TFA [No. 4300]
